The results in this text go back to patent US20230295728A1, “METHODS FOR DIAGNOSING AND TREATING AUTISM” (CENTRE NATIONAL DE LA RECHERCHE SCIENTIFIQUE (CNRS), priority 2020, published 2023).

Data set [1] relates to six-microRNAs (miR-19a-3p, miR-361-5p, miR-3613-3p, miR-150-5p, miR-126-3p, miR-499a-5p). The data set can be described thus: miRNA analysis of the mouse models (q-PCR of blood, sperm, hippocampus RNA). It counts as in vivo. As to conditions: VPA-treated mice (500 mg/kg). As to the method:
Routine qPCR for miR detection and validation^41 was performed with the miScript PCR control set (catalog number 218380; Qiagen, Germany). The miScript™ miRNA PCR Array Human Serum & Plasma 384HC (Cat No: 331223) was used in this study. The Human Serum & Plasma 384HC miScript miRNA PCR Array profiles the expression of 372 miRNAs) that are detectable in serum and plasma using the miScript PCR system. SNORD61, SNORD68, SNORD72, SNORD95, SNORD96A, RNU6-2, miRTC, miRTC, and PPC were used as controls. The data were normalized using the 2^−ΔΔct method.
Total RNA was prepared from mouse tissues (blood, hippocampus, sperm) according to published procedures^42. Sperm cells were isolated from the epididymis, and floating sperm were recovered by successive washing (PBS) and centrifugation at 3000 rpm. Briefly, RNAs were extracted from all tissues (hippocampus, blood and sperm cells) via a standard protocol. Qiazol Lysis Buffer (Cat. No: 79306; Qiagen, Texas, USA) was used in accordance with the manufacturer's instructions. The Qiazol-extracted aqueous phase was ethanol precipitated, followed by washing twice with 70% ethanol. To remove the remaining DNA, the PCR samples were treated with DNase according to the manufacturer's instructions.

The subject of data set [2] is Balb c mice. The data set can be described thus: Tail suspension test. It counts as in vivo, mouse. As to the method: Adult mice (2 months old) (Balb c strain) weighing 25-27 g on the test day. The apparatus used for the tail test consisted of two filter covers each and enabled three mice to be tested simultaneously. Each mouse was suspended by the tail from a hook connected to the strain gauge, to which they were attached with adhesive tape with a length of 18 cm. The duration of each trial was 360 seconds. The tail suspension test was recorded using a SONY HDR-CX240E video recorder. […] An immobility posture indicates the abandonment of struggling and, thus, depression. Periods of agitation and immobility are reported (data not shown).

In data set [3] the test system is Balb c mice. As to the kind of experiment: Novel object recognition test. It counts as in vivo, mouse. An excerpt: The time spent with familiar versus novel objects highlighted a common characteristic of the test group versus the controls. Specifically, it indicated differences in the interest in and recognition of objects. NOR (novel object recognition) is a well-established test in a variety of animal models with multiple protocols. In general, it involves two trials of cognition evaluation based on the spontaneous exploratory conduct of a mouse to measure recognition memory. In the first trial, we used (first-day acquisition) animals that were exposed to two similar objects (small orange boxes) in a chamber for 5 minutes. During the second trial (second-day retention) mice were again exposed to two dissimilar objects for 5 minutes, including one familiar object from the first trial and one new object (blue box). Object recognition was measured (data not shown), according to the difference in the time spent with the familiar object versus the new object.

Another data set has as its system B6D2 and Balb c males. As to the method: The control group received the same volume (0.1 ml) of 0.9% saline buffer. At 14 days post birth, all offspring (8-12 pups from each litter) were injected (intraperitoneally) with VPA at […] or with saline buffer as a control. […] The F1 to F2 generations were obtained following treatment with the 300 to 500 mg/kg VPA doses. The F1 generation derived from VPA-injected F0 fathers is referred to as VPA-F1, while that from saline-injected fathers is identified as the control. Adult VPA-F1 males were bred with normal females.
VPA is known to perturb brain formation during early development^22 and to induce characteristic traits of ASD pathology^23,24. […] We treated the animals after birth rather than treating pregnant females as in previous studies^23,24 to avoid the multiple effects on embryonic development generated via the mothers during pregnancy as well as the effects on germ cells. […] In contrast, the injection of pregnant females often leads to an unpredicted arrest of embryonic development and mortality of the mothers either during pregnancy or after the birth of their progenies.
The spermatogonial stem cells that will continuously divide and differentiate throughout the life of the male are present, leaving open the possibility that some changes in transcript levels may be transmitted to the next generation.

Data set [4] concerns Balb c mice. As to the kind of experiment: Open field and Morris water tests. Format: in vivo, mouse. To be noted: 500 mg/kg VPA group (data not shown).
The test system of data set [5] is Balb c mice. The data set can be described thus: Glass marble burying test. Format: in vivo, mouse. How it is done: According to the described protocols, newly filled bedding cages were prepared with 20 marbles spaced on the bedding surface. Mice were individually caged. After 30 minutes, each mouse was returned to its home cage, and the buried marbles were counted (data not shown). Marbles that were not buried were not included in the analysis.

For data set [6], the system named is Balb c mice. The data set can be described thus: Social interaction test (three chambers). Format: in vivo, mouse. How it is done:
To determine whether these interactions varied between the groups of mice, they were filmed for 5 minutes. There are many different ways to follow social interaction. Here, we present the results in a simple way based on conditions in a cage separated into three sections. The mice being tested were placed in the center of the cage and were filmed to calculate the time that they spent close to the empty compartment or the compartment occupied by another mouse. The three chambers were separated by square doors in the two inner walls connecting to the center area. Briefly, the test mouse was introduced in the center to initiate habituation for 5 minutes while blocking access to the side compartments. The first test was conducted by placing an unfamiliar mouse inside an empty wire cage in one of the side chambers to measure the social interaction of the subject mouse without direct social contact. On the other side, there was an empty wire cage. Each test was performed for 10 minutes (data not shown), and the floor surfaces were wiped with 70% ethanol between trials. The accumulated time spent in each compartment and the sociability or social preference indices were measured to quantify the social behavior of the mice.

Molecules are shown by their SMILES. Entries after “also recorded” stand apart in the source; their conditions may differ.

In the case of `CCCC(CCC)C(=O)O` [VPA, valproic acid], the “expression of the six-microRNAs” value in data set [1] is “decreases not only in the blood but also in the sperm and hippocampus”. Further, the “immobility / struggle-related behaviour” value in the data set on Balb c mice [2] (500 mg/kg, F0 treated males) was “a significant change that indicated abandonment and depression was observed”; in the data set on Balb c mice [2] (F1 generation of VPA-treated fathers, compared to F0) it was “the reverse effect was observed”. In addition, the “time spent with familiar versus novel objects” value in the data set on Balb c mice [3] (400 mg/kg, only for familiar objects) was “Some effect was detectable”; in the data set on Balb c mice [3] (500 mg/kg, treated males), “lost interest and spent the same amount of time with the two objects but spent less time overall with both objects”. Also, the sudden mortality entry in the data set on B6D2 and Balb c males (500 mg/kg i.p., males) was “without sudden mortality”. In the data set with B6D2 and Balb c males (600-700 mg/kg, one i.p. injection at 14 days post birth, both mouse lines), the “mortality / lethality at high doses” value is recorded as “dramatic lethality; also recorded: sudden dramatic mortality; also recorded: lethal”. Moreover, the “breeding behaviour, fertility, testes” value with B6D2 and Balb c males (mouse, in vivo, 500 mg/kg) was “a few males became aggressive toward females during breeding, showed reduced fertility and smaller testes”. In addition, the overall activity entry in the data set with Balb c mice [4] was “decrease in the overall activity as well by half”. The “marbles buried in 30 minutes” value in the data set on Balb c mice [5] (500 mg/kg VPA F1 generation) is “the same behavior as in the founders, with significantly less activity”; in the data set on Balb c mice [5] (500 mg/kg, treated males), “markedly less interest in burying marbles”. The “overall activity in social interaction tests” value with Balb c mice [6] (500 mg/kg VPA group) was “decrease in overall activity”. In addition, the “time spent close to chamber with mouse versus empty chamber” value in the data set on Balb c mice [6] (500 mg/kg, treated males) is “showed less interest and spent an even smaller amount of time close to the empty cage”.
